Measurements: publication PMC12668308, “A Novel Antimalarial Agent that Inhibits Protein Synthesis in Plasmodium falciparum” (Angewandte Chemie (International Ed. in English), 2025)

Key:
[1] = system: mRNA translation in NF54 trophozoite-stage parasites; test: Surface sensing of translation (SUnSET) assay; assay type: cell-based, Plasmodium falciparum; conditions: trophozoites 30–35 hpi; 31 at 3x, 50x, 100x IC50; 34 and pyrimethamine at 3x IC50
Protocol: To confirm the role of 31 as a translation inhibitor, the surface sensing of translation (SUnSET) assay was employed. This involves incubating the culture with a translation inhibitor, puromycin, a structural analogue of aminoacyl tRNA. Puromycin is incorporated in the nascent polypeptide chain and prevents further elongation. When puromcyin is used in sub‐lethal concentrations, incorporation of puromycin in neosynthesized protein correlates with the levels of mRNA translation (Figure 3c, lane2).^[ [27] ^] […] This trend was further confirmed by the quantified western blot signals (Figures 3d and S4C) that are consistent with the iSPP profiling results.
SUnSET: The SUnSET assay was done as described in. ^[27^]Tightly synchronized NF54 wild type parasites were treated with the compounds for 4h at 30-35 hpi (trophozoite stage). The following compounds and amounts used were: cycloheximide (3xIC50, 1,2 µM; Calbiochem), pyrimethamine (3xIC50, 21 nM; MedChemExpress), 34 (3xIC50, 12 µM), and 31 (3xIC50, 12 nM; 50xIC50, 200 nM; 100xIC50, 400 nM). Parasites were incubated with 1 µg mL^-1 (Sigma P8833) for 1 h at 37 °C and saponin lysis was performed.
Saponin lysis and Western blot: Saponin lysis was done on infected RBC at ~5% parasitemia to lyse erythrocytes. Parasite cultures were centrifuged at 1,200 g for 5 min at room temperature. Once the supernatant was discarded, 10 volumes of ice-cold 0.1% (w/v) saponin (Calbiochem 558255, dissolved in PBS, and filtered with 0,22) was added, incubated on ice for 10 min and centrifuged for 2,272 g for 15 min at 4 °C. […] The membrane was washed 3 times in PBS-T (3 min incubation in each washing step) and the signal was detected using the chemiluminescent substrate SuperSignal West Pico Plus (Thermo Scientific, REF 34580) and the imaging system Vilber Fusion FX7 Edge 17.10 SN. Quantification of Western blot signal was done by measuring the integrated density of each lane using ImageJ analysis software (version 1.54p). […]

[2] = system: cytosolic ribosomal subunits; test: iSPP assay, P. falciparum lysate; assay type: binding, Plasmodium falciparum; conditions: lysate incubated with 100 µM; 104 stabilized proteins in total for 31
Excerpt: To further elucidate the MoA of 31, an integral solvent‐induced protein precipitation (iSPP) assay was employed as recently described.^[ [26] ^] iSPP utilizes a solvent mixture (acetone/ethanol/acetic acid) to induce protein denaturation, allowing the detection of drug‐protein interactions by quantitative mass spectrometry based on changes in protein stability due to compound binding using cellular lysates from in vitro blood‐stage P. falciparum parasites.
P. falciparum NF54 lysates were extracted as described in ^[26^] . The parasite asynchronous culture was extracted once 3-5% parasitemia was reached. Saponin lysis was done as described in 2.2.10. […] The soluble protein fraction (supernatant) was collected and the protein content was quantified using the BCA assay (Pierce™ BCA Protein Assay Kit, Thermo Fisher Scientific). […]
The raw LFQ-DIA intensity values of biological replicates across all conditions were normalized to the median abundance using Excel. […] Dose-dependent curves were generated using normalized protein intensity values, expressed as a ratio to the vehicle control. […]

CN1CCN(Cc2ccc(O)c(NC(=O)c3cccc(Oc4cc(C(F)(F)F)ccn4)c3)c2)CC1 [Compound 31, N-(2-hydroxy-5-((4-methylpiperazin-1-yl)methyl)phenyl)-3-((4-(trifluoromethyl)pyridin-2-yl)oxy)benzamide]
mRNA translation (puromycin incorporation) [1]: concentration‐dependent reduction in translation | significantly stabilized proteins belonging to cytosolic ribosomal subunits [2]: 12

O=C(Nc1cc(CN2CCOCC2)ccc1F)c1cccc(Oc2cc(C(F)(F)F)ccn2)c1 [Compound 34, N-(2-Fluoro-5-(morpholinomethyl)phenyl)-3-((4-(trifluoromethyl)pyridin-2-yl)oxy)benzamide]
mRNA translation (puromycin incorporation) [1]: did not reduce mRNA translation | significantly stabilized proteins belonging to cytosolic ribosomal subunits [2]: failed to stabilize any cytosolic ribosomal proteins
